Test results taken from ChEMBL document CHEMBL4732202, “Identification and Profiling of a Novel Diazaspiro[3.4]octane Chemical Series Active against Multiple Stages of the Human Malaria Parasite Plasmodium falciparum and Optimization Efforts” (J Med Chem, 2021).

Columns and labels:
[1] = Unbound AUC in Balb/c mouse at 20 mg/kg, po measured upto 24 hrs by LC-MS/MS analysis; assay type: ADME, organism-based; conditions: in vivo
[2] = Volume of distribution in Balb/c mouse at 3 mg/kg, iv measured upto 24 hrs by LC-MS/MS analysis; assay type: ADME, organism-based; conditions: in vivo
[3] = Half life in mouse liver microsomes at 0.1 uM in presence or absence of NADPH by LC-MS/MS analysis; assay type: ADME, Microsome
[4] = Half life in human liver microsomes at 0.1 uM in presence or absence of NADPH by LC-MS/MS analysis; assay type: ADME, Microsome
[5] = AUC (0 to infinity) in Balb/c mouse at 3 mg/kg, iv measured upto 24 hrs by LC-MS/MS analysis; assay type: ADME, organism-based; set-up: route intravenous, dose 3 mg/kg, time <=24; conditions: in vivo
[6] = Half life in Balb/c mouse at 3 mg/kg, iv measured upto 24 hrs by LC-MS/MS analysis; assay type: ADME, organism-based; conditions: in vivo
[7] = Oral bioavailability in Balb/c mouse at 10 mg/kg measured upto 24 hrs by LC-MS/MS analysis; assay type: ADME, organism-based; conditions: in vivo
[8] = Intrinsic clearance in Balb/c mouse at 3 mg/kg, iv measured upto 24 hrs by LC-MS/MS analysis; assay type: ADME, organism-based; conditions: in vivo
[9] = Half life in rat liver microsomes at 0.1 uM in presence or absence of NADPH by LC-MS/MS analysis; assay type: ADME, Microsome
[10] = Blood clearance in Balb/c mouse at 3 mg/kg, iv measured upto 24 hrs by LC-MS/MS analysis; assay type: ADME, organism-based; conditions: whole blood
[11] = Unbound average drug concentration in Balb/c mouse at 20 mg/kg, po measured upto 24 hrs by LC-MS/MS analysis; assay type: ADME, organism-based; conditions: in vivo

Row | half-life at 0.1 µM [3] | half-life at 0.1 µM [4] | half-life at 0.1 µM [9] | SMILES | also measured
1 | 150 min | 150 min | 150 min | O=C(Cc1cc[n+]([O-])cc1)N1CC(CNc2ccc(F)cc2)C2(C1)CN(c1cc(F)cc(F)c1)C2 (racemic) | 
2 | 70 min | 27 min | 31 min | N#Cc1cc(CC(=O)N2CC(CNc3ccc(F)cc3)C3(C2)CN(c2cc(F)cc(F)c2)C3)ccc1O (racemic) | 
3 | 17 min | 21 min | 52 min | O=C(Cc1ccc(O)nc1)N1CC(CNc2ccc(F)cc2)C2(C1)CN(c1cc(F)cc(F)c1)C2 (racemic) | 
4 | 67 min | 64 min | 68 min | O=C(Cc1ncc(O)cn1)N1CC(CNc2ccc(F)cc2)C2(C1)CN(c1cc(F)cc(F)c1)C2 (racemic) | 
5 | 24 min | 15 min | 16 min | O=C(Cc1ccc(O)c(C(F)(F)F)c1)N1CC(CNc2ccc(F)cc2)C2(C1)CN(c1cc(F)cc(F)c1)C2 (racemic) | 
6 | 21 min | 11 min | 8 min | NC(=O)c1cc(CC(=O)N2CC(CNc3ccc(F)cc3)C3(C2)CN(c2cc(F)cc(F)c2)C3)ccc1O (racemic) | 
7 | 11 min | 12 min | 12 min | O=C(Cc1ccc(O)cn1)N1CC(CNc2ccc(F)cc2)C2(C1)CN(c1cc(F)cc(F)c1)C2 (racemic) | 
8 | 48 min | 25 min | 44 min | N[C@@H](C(=O)N1CC(CNc2ccc(F)cc2)C2(C1)CN(c1cc(F)cc(F)c1)C2)c1ccc(O)cc1 (mixture of isomers) | 
9 | 17 min | 12 min | 20 min | O=C(Cc1ccnc(O)c1)N1CC(CNc2ccc(F)cc2)C2(C1)CN(c1cc(F)cc(F)c1)C2 (racemic) | 
10 | 11 min | 9 min | 6.7 min | O=C([C@@H](O)c1ccc(O)cc1)N1CC(CNc2ccc(F)cc2)C2(C1)CN(c1cc(F)cc(F)c1)C2 (mixture of isomers) | 
11 | 20 min | 34 min | 24 min | N[C@H](Cc1ccc(O)cc1)C(=O)N1CC(CNc2ccc(F)cc2)C2(C1)CN(c1cc(F)cc(F)c1)C2 (mixture of isomers) | 

The remaining lines, values behind:

Row | SMILES | half-life at 0.1 µM [3] | half-life at 0.1 µM [4] | half-life at 0.1 µM [9] | also measured
12 | Nc1ccc(C[C@@H](N)C(=O)N2CC(CNc3ccc(F)cc3)C3(C2)CN(c2cc(F)cc(F)c2)C3)cc1 (mixture of isomers) | 150 min | 150 min | 150 min | fAUC [1]: 2 µmol·min/L; Vd [2]: 20.7 L/kg; AUC(0-inf) [5]: 2.48 µM·h; half-life [6]: 342 min; bioavailability [7]: 8%; CL [8]: 2959 mL/min/kg; clearance [10]: 40.6 mL/min/kg; Cave [11]: 1 nM
13 | O=C([C@H](O)c1ccc(O)cc1)N1CC(CNc2ccc(F)cc2)C2(C1)CN(c1cc(F)cc(F)c1)C2 (mixture of isomers) | 4.4 min | 6.8 min | 7.9 min | 
14 | O=C(N1CC(CNc2ccc(F)cc2)C2(C1)CN(c1cc(F)cc(F)c1)C2)C(F)(F)c1ccc(O)c(C(F)(F)F)c1 (racemic) | 16 min | 18 min | 7 min | 
15 | CS(=O)(=O)c1ccc(-c2cnc(N)c(-c3ccc(C(F)(F)F)nc3)c2)cc1 [MMV-048] |  |  |  | fAUC [1]: 4452 µmol·min/L; bioavailability [7]: > 100%; CL [8]: 19 mL/min/kg; clearance [10]: 3 mL/min/kg; f(Cave) [11]: 3092 nM
16 | C[C@H](C(=O)N1CC(CNc2ccc(F)cc2)C2(C1)CN(c1cc(F)cc(F)c1)C2)c1ccc(O)cc1 (mixture of isomers) | 10 min | 6 min | 4 min | 
17 | O=C(N1CC(CNc2ccc(F)cc2)C2(C1)CN(c1cc(F)cc(F)c1)C2)C(F)(F)c1ccc(O)cc1 (racemic) | 12 min | 23 min | 11 min | 
18 | O=C(Cc1ccc(O)cc1)N1CC(CNc2ccccc2)C2(C1)CN(c1ccc(F)cc1)C2 (stereo not drawn) |  |  |  | fAUC [1]: 3 µmol·min/L; Vd [2]: 22 L/kg; AUC(0-inf) [5]: 1.82 µM·h; half-life [6]: 240 min; bioavailability [7]: 10%; CL [8]: 5042 mL/min/kg; clearance [10]: 63 mL/min/kg; f(Cave) [11]: 2 nM
19 | C[C@@H](C(=O)N1CC(CNc2ccc(F)cc2)C2(C1)CN(c1cc(F)cc(F)c1)C2)c1ccc(O)cc1 (mixture of isomers) | 7 min | 6 min | 6 min | 
20 | N[C@H](C(=O)N1CC(CNc2ccc(F)cc2)C2(C1)CN(c1cc(F)cc(F)c1)C2)c1ccc(O)cc1 (mixture of isomers; form 1) | 150 min | 150 min | 150 min | fAUC [1]: 3 µmol·min/L; Vd [2]: 23.5 L/kg; AUC(0-inf) [5]: 3 µM·h; half-life [6]: 480 min; bioavailability [7]: < 1%; CL [8]: 2155 mL/min/kg; clearance [10]: 33.7 mL/min/kg; f(Cave) [11]: 2 nM
21 | O=C(Cc1ccc(O)c(F)c1)N1CC(CNc2ccc(F)cc2)C2(C1)CN(c1ccc(F)cc1)C2 (racemic) | 13 min | 17 min | 14 min | 
22 | CC1(C)c2nc(-c3ccc(F)cc3)c(Nc3ccc(F)cc3)n2CCN1C(=O)CN [GANAPLACIDE] |  |  |  | fAUC [1]: 65.4 µmol·min/L; bioavailability [7]: 74%; CL [8]: 548 mL/min/kg; clearance [10]: 37.8 mL/min/kg; f(Cave) [11]: 45 nM
23 | O=C(Cc1ccc(O)c(Cl)c1)N1CC(CNc2ccc(F)cc2)C2(C1)CN(c1ccc(F)cc1)C2 (racemic) | 16 min | 22 min | 25 min | 
24 | O=C(CN1CCC(O)CC1)N1CC(CNc2ccc(F)cc2)C2(C1)CN(c1ccc(F)cc1)C2 (racemic) | 150 min | 150 min | 150 min | 
25 | O=C(Cc1cc(F)c(O)c(F)c1)N1CC(CNc2ccc(F)cc2)C2(C1)CN(c1ccc(F)cc1)C2 (racemic) | 42 min | 46 min | 40 min | 
26 | O=C(Cc1ccc(C(F)F)cc1)N1CC(CNc2ccc(F)cc2)C2(C1)CN(c1ccc(F)cc1)C2 (racemic) | 6.6 min | 7.6 min | 7.6 min | 
